Measurements published in PubChem BioAssay AID248 (DTP/NCI, 2004).
Several values for one entry are separate records, joined by “and”; a condition that tells them apart may be missing. Identical values can stand only once. Inconclusive results and toxic doses are left out. Cut-off read from the data, not from the text of the source: active = T/C of 150% or more; inactive = T/C below 125%.

System: L1210 leukemia ip in BDF1 mice, survival T/C
Assay: NCI In Vivo Anticancer Drug Screen. Data for tumor model L1210 Leukemia (intraperitoneal) in B6D2F1 (BDF1) mice
Conditions: endpoint: mean survival time, higher = longer survival
Procedure, shortened: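 Antitumor effect is assessed in tumor-bearing animals. Survival in the compound arm is compared with a vehicle-dosed control arm and expressed as their quotient.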

[1] = dose: 100.0 mg/kg/injection, schedule: Q01DX009 (ip), vehicle: Klucel (hydroxypropylcellulose) (HPC)
[2] = dose: 100.0 mg/kg/injection, schedule: Q04DX003 (ip), vehicle: Klucel (hydroxypropylcellulose) (HPC)
[3] = dose: 200.0 mg/kg/injection, schedule: Q04DX003 (ip), vehicle: Klucel (hydroxypropylcellulose) (HPC)
[4] = dose: 400.0 mg/kg/injection, schedule: Q04DX003 (ip), vehicle: Klucel (hydroxypropylcellulose) (HPC)
[5] = dose: 400.0 mg/kg/injection, schedule: Q01DX001 (ip), vehicle: carboxymethylcellulose (CMC)
[6] = dose: 200.0 mg/kg/injection, schedule: Q01DX009 (ip), vehicle: Klucel (hydroxypropylcellulose) (HPC)
[7] = dose: 50.0 mg/kg/injection, schedule: Q04DX002 (ip), vehicle: saline with Tween-80
[8] = dose: 100.0 mg/kg/injection, schedule: Q04DX002 (ip), vehicle: saline with Tween-80
[9] = dose: 200.0 mg/kg/injection, schedule: Q04DX002 (ip), vehicle: saline with Tween-80
[10] = dose: 400.0 mg/kg/injection, schedule: Q04DX002 (ip), vehicle: saline with Tween-80
[11] = dose: 100.0 mg/kg/injection, schedule: Q01DX001 (ip), vehicle: carboxymethylcellulose (CMC)
[12] = dose: 200.0 mg/kg/injection, schedule: Q01DX001 (ip), vehicle: carboxymethylcellulose (CMC)
[13] = dose: 100.0 mg/kg/injection, schedule: Q01DX009 (ip), vehicle: saline with Tween-80
[14] = dose: 200.0 mg/kg/injection, schedule: Q01DX009 (ip), vehicle: saline with Tween-80
[15] = dose: 400.0 mg/kg/injection, schedule: Q01DX009 (ip), vehicle: saline with Tween-80

Measured: T/C

O=C(O)C1CCC2CCCCC2[N-]1.O=C(O)C1CCC2CCCCC2[N-]1.[Zn+2] (configuration not stated)
inactive: dose: 25.0 mg/kg/injection, schedule: Q01DX009 (ip), vehicle: Klucel (hydroxypropylcellulose) (HPC) 92 % of control | dose: 50.0 mg/kg/injection, schedule: Q01DX009 (ip), vehicle: Klucel (hydroxypropylcellulose) (HPC) 87 % of control | [1] 86 % of control | [2] 94 % of control | [3] 89 % of control | [4] 89 % of control

CC1(C)c2ccccc2C(O)(CCl)c2ccccc21
inactive: [2] 104 % of control | [3] 112 % of control | [4] 94 % of control

CCCCc1cccc(N2C(N)=NC(N)=NC2(C)C)c1
inactive: dose: 12.5 mg/kg/injection, schedule: Q01DX001 (ip), vehicle: saline 103 % of control | dose: 50.0 mg/kg/injection, schedule: Q01DX001 (ip), vehicle: saline 89 % of control

COc1ccc(CCO)cc1OC
inactive: dose: 50.0 mg/kg/injection, schedule: Q01DX001 (ip), vehicle: carboxymethylcellulose (CMC) 95 % of control | dose: 100.0 mg/kg/injection, schedule: Q01DX009 (ip), vehicle: water 93 % of control | dose: 100.0 mg/kg/injection, schedule: Q04DX003 (ip), vehicle: water 100 % of control | dose: 200.0 mg/kg/injection, schedule: Q01DX009 (ip), vehicle: water 93 % of control | dose: 200.0 mg/kg/injection, schedule: Q04DX003 (ip), vehicle: water 97 % of control | [5] 97 % of control | dose: 400.0 mg/kg/injection, schedule: Q01DX009 (ip), vehicle: water 95 % of control | dose: 400.0 mg/kg/injection, schedule: Q04DX003 (ip), vehicle: water 97 % of control

COc1ccc(C(=O)NC(=S)Nc2ccc(I)cc2)cc1
inactive: [1] 98 % of control | [2] 89 % of control | [6] 98 % of control | [3] 89 % of control | dose: 400.0 mg/kg/injection, schedule: Q01DX009 (ip), vehicle: Klucel (hydroxypropylcellulose) (HPC) 91 % of control | [4] 94 % of control

CCOC(=O)/C=C1\CCCc2ccc(Cl)cc21
inactive: [7] 111 % of control | [8] 101 % of control and 104 % of control | [9] 101 % of control | [10] 101 % of control

CCS(=O)(=O)c1ccc(NC(=O)OC(c2ccccc2)c2ccccc2)cc1
inactive: [11] 94 % of control | [12] 91 % of control | [5] 96 % of control

COC(=O)C(=O)c1c(-c2ccc[n+](Cc3ccccc3)c2)[nH]c2ccccc12
inactive: dose: 75.0 mg/kg/injection, schedule: Q01DX001 (ip), vehicle: saline 101 % of control | dose: 150.0 mg/kg/injection, schedule: Q01DX001 (ip), vehicle: saline 93 % of control

CN1CCN(C(=O)c2ccc(C(=O)N3CCN(C)CC3)cc2)CC1
inactive: dose: 15.0 mg/kg/injection, schedule: Q01DX Z (ip), vehicle: saline 94 % of control | dose: 30.0 mg/kg/injection, schedule: Q01DX Z (ip), vehicle: saline 94 % of control | dose: 60.0 mg/kg/injection, schedule: Q01DX Z (ip), vehicle: saline 108 % of control | dose: 120.0 mg/kg/injection, schedule: Q01DX Z (ip), vehicle: saline 102 % of control | dose: 125.0 mg/kg/injection, schedule: Q01DX Z (ip), vehicle: carboxymethylcellulose (CMC) 96 % of control | dose: 250.0 mg/kg/injection, schedule: Q01DX Z (ip), vehicle: carboxymethylcellulose (CMC) 102 % of control | dose: 500.0 mg/kg/injection, schedule: Q01DX Z (ip), vehicle: carboxymethylcellulose (CMC) 90 % of control

c1cc(N2CCOCC2)ccc1Cc1ccc(N2CCOCC2)cc1
inactive: [1] 102 % of control | [2] 93 % of control | [6] 109 % of control | [3] 101 % of control | [4] 93 % of control

CCc1cc2c(cc1C(=O)CCN1CCCC1)C(C)(C)CCC2(C)C
inactive: dose: 25.0 mg/kg/injection, schedule: Q04DX002 (ip), vehicle: saline with Tween-80 90 % of control | [7] 90 % of control | [8] 90 % of control

CC(=O)SCCC(=O)O
inactive: dose: 8.25 mg/kg/injection, schedule: Q01DX009 (ip), vehicle: saline 94 % of control | dose: 12.5 mg/kg/injection, schedule: Q01DX009 (ip), vehicle: saline 92 % of control | dose: 18.75 mg/kg/injection, schedule: Q01DX009 (ip), vehicle: saline 103 % of control

CC(=O)OC1C2CCC(C2)C1C (configuration not stated)
inactive: [13] 98 % of control | [14] 104 % of control | [15] 96 % of control

Cn1c2c(c3ccccc31)=NN1CCN=C1N=2
inactive: dose: 6.25 mg/kg/injection, schedule: Q04DX002 (ip), vehicle: saline 107 % of control | dose: 12.5 mg/kg/injection, schedule: Q04DX002 (ip), vehicle: saline 103 % of control

CCc1c(Nc2ccc(Cl)c(Cl)c2)nc(N)[nH]c1=O
inactive: dose: 100.0 mg/kg/injection, schedule: Q01DX Z (ip), vehicle: methylcellulose (MC) 99 % of control | dose: 200.0 mg/kg/injection, schedule: Q01DX Z (ip), vehicle: methylcellulose (MC) 100 % of control

C1=NN=C2C=C3CCc4ccccc4C3CC12 (configuration not stated)
inactive: dose: 100.0 mg/kg/injection, schedule: Q01DX001 (ip), vehicle: acetone 93 % of control | dose: 200.0 mg/kg/injection, schedule: Q01DX001 (ip), vehicle: acetone 96 % of control

O=S(=O)(Cc1ccccc1)C(Br)c1ccccc1 (configuration not stated)
inactive: dose: 100.0 mg/kg/injection, schedule: Q01DX001 (ip), vehicle: other 101 % of control | dose: 100.0 mg/kg/injection, schedule: Q04DX003 (ip), vehicle: saline 108 % of control | dose: 200.0 mg/kg/injection, schedule: Q01DX001 (ip), vehicle: other 96 % of control | dose: 200.0 mg/kg/injection, schedule: Q04DX003 (ip), vehicle: saline 97 % of control | dose: 400.0 mg/kg/injection, schedule: Q01DX001 (ip), vehicle: other 98 % of control | dose: 400.0 mg/kg/injection, schedule: Q04DX003 (ip), vehicle: saline 87 % of control

CCCCS/C=C1\CCC2(C)CCCCC2C1=O (configuration not stated)
inactive: [8] 100 % of control | [9] 100 % of control | [10] 120 % of control

CCN(C(=O)c1cccc(C(=O)N(CC)c2ccccc2C)c1)c1ccccc1C
inactive: dose: 50.0 mg/kg/injection, schedule: Q01DX009 (ip), vehicle: saline with Tween-80 97 % of control | [13] 90 % of control | dose: 100.0 mg/kg/injection, schedule: Q04DX003 (ip), vehicle: saline with Tween-80 99 % of control | [14] 89 % of control | dose: 200.0 mg/kg/injection, schedule: Q04DX003 (ip), vehicle: saline with Tween-80 90 % of control

CCCOC(=O)c1ccc(OC(=O)NC)cc1
inactive: [11] 92 % of control | dose: 100.0 mg/kg/injection, schedule: Q01DX009 (ip), vehicle: carboxymethylcellulose (CMC) 101 % of control and 106 % of control | dose: 100.0 mg/kg/injection, schedule: Q04DX002 (ip), vehicle: carboxymethylcellulose (CMC) 102 % of control and 112 % of control | dose: 100.0 mg/kg/injection, schedule: Q04DX003 (ip), vehicle: carboxymethylcellulose (CMC) 102 % of control | [12] 102 % of control | dose: 200.0 mg/kg/injection, schedule: Q01DX009 (ip), vehicle: carboxymethylcellulose (CMC) 109 % of control and 88 % of control | dose: 200.0 mg/kg/injection, schedule: Q04DX002 (ip), vehicle: carboxymethylcellulose (CMC) 97 % of control and 102 % of control | dose: 200.0 mg/kg/injection, schedule: Q04DX003 (ip), vehicle: carboxymethylcellulose (CMC) 91 % of control | [5] 96 % of control | dose: 400.0 mg/kg/injection, schedule: Q04DX002 (ip), vehicle: carboxymethylcellulose (CMC) 94 % of control and 102 % of control

CNC(=S)n1ncnc1NC=O
inactive: dose: 100.0 mg/kg/injection, schedule: Q04DX003 (ip), vehicle: acetone 98 % of control

O=c1[nH]c2ccc(F)cc2c(=O)o1
inactive: dose: 75.0 mg/kg/injection, schedule: Q01DX009 (ip), vehicle: saline 107 % of control | dose: 150.0 mg/kg/injection, schedule: Q01DX009 (ip), vehicle: saline 93 % of control | dose: 300.0 mg/kg/injection, schedule: Q01DX009 (ip), vehicle: saline 94 % of control

O=[N+]([O-])c1ccc(N=C/C=C/c2ccccc2)cc1
inactive: [13] 88 % of control | [14] 94 % of control | [15] 104 % of control
